# Assays:
# corn [1] = test: Test B pre-/postemergence herbicide test; assay type: in vivo, Zea mays
# Summary of the method: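 Visual rating, 0 (no effect) to 100 (complete control), versus untreated controls after 13–15 d in greenhouse. Pre- and postemergence applications (postemergence plants 2–18 cm, 1–4 leaves); flooded paddy arm at 2-leaf stage. Compounds in non-phytotoxic solvent plus surfactant.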
# ducksalad = test: Test B flooded paddy test; assay type: in vivo, Heteranthera limosa; details: 1000 g ai/ha, scale 0 to 100 (0 no effect, 100 complete control)
# Summary of the method: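 Visual ratings, 0 (no effect) to 100 (complete control), made versus controls after 13–15 d greenhouse. Paddy plants treated at 2-leaf stage; postemergence plants at 1- to 4-leaf stage, 2–18 cm tall.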
# cocklebur = test: Test C pre-/postemergence herbicide test; assay type: in vivo, Xanthium strumarium
# Source text: (§1) Seeds of plant species selected from bermudagrass (Cynodon dactylon (L.) Pers.), Surinam grass (Urochloa decumbens (Staph) R. D. Webster, previously named Brachiaria decumbens Stapf), cocklebur (Xanthium strumarium L.), corn (Zea mays L.), large crabgrass (Digitaria sanguinalis (L.) Scop.), woolly cupgrass (Eriochloa villosa (Thunb.) Kunth), giant foxtail (Setaria faberi Herrm.), goosegrass (Eleusine indica (L.) Gaertn.), johnsongrass (Sorghum halepense (L.) Pers.), kochia (Kochia scoparia (L.) Schrad.), lambsquarters (Chenopodium album L.), morningglory (Ipomoea coccinea L.), eastern black nightshade (Solanum ptycanthum Dunal), yellow nutsedge (Cyperus esculentus L.), pigweed (Amaranthus retroflexus L.), common ragweed (Ambrosia elatior L.), soybean (Glycine max (L.) Merr.), common (oilseed) sunflower (Helianthus annuus L.) and velvetleaf (Abutilon theophrasti Medik.) were planted and treated preemergence with test chemicals formulated in a non-phytotoxic solvent mixture which included a surfactant.
# (§2) At the same time, plants selected from these crop and weed species and also winter barley (Hordeum vulgare L.), blackgrass (Alopecurus myosuroides Huds.), canarygrass (Phalaris minor Retz.), chickweed (Stellaria media (L.) Vill.), downy bromegrass (Bromus tectorum L.), green foxtail (Setaria viridis (L.) Beauv.), Italian ryegrass (Lolium multiflorum Lam.), wheat (Triticum aestivum L.), wild oat (Avenafatua L.) and windgrass (Apera spica-venti (L.) Beauv.) were treated with postemergence applications of some of the test chemicals formulated in the same manner. Plants ranged in height from 2 to 18 cm (1- to 4-leaf stage) for postemergence treatments. Plant species in the flooded paddy test consisted of rice (Oryza sativa), smallflower umbrella sedge (Cyperus difformis L.), ducksalad (Heteranthera limosa (Sw.) Willd.) and barnyardgrass (Echinochloa crus-galli (L.) Beauv.) grown to the 2-leaf stage for testing. Treated plants and controls were maintained in a greenhouse for 12 to 14 days, after which time all species were compared to controls and visually evaluated. Plant response ratings, summarized in Table C, are based on a scale of 0 to 100 where 0 is no effect and 100 is complete control. A dash (-) response means no test result.
# corn [2] = test: Test C pre-/postemergence herbicide test; assay type: in vivo, Zea mays; details: for Corn plant response rating: Preemergence, scale 0 to 100, 0 no effect, 100 complete control
# Source text: as §1, §2
# giant foxtail = test: Test C pre-/postemergence herbicide test; assay type: in vivo, Setaria faberi; details: for Foxtail, Giant plant response rating: Preemergence, scale 0 to 100, 0 no effect, 100 complete control
# Source text: as §1, §2
# kochia = test: Test C pre-/postemergence herbicide test; assay type: in vivo, Kochia scoparia; details: for Kochia plant response rating: Preemergence, scale 0 to 100, 0 no effect, 100 complete control
# Source text: as §1, §2
# velvetleaf = test: Test C pre-/postemergence herbicide test; assay type: in vivo, Abutilon theophrasti; details: for Velvetleaf plant response rating: Preemergence, scale 0 to 100, 0 no effect, 100 complete control
# Source text: as §1, §2
# [3] = 125 g ai/ha, 0 = no effect, 100 = complete control, preemergence
# [4] = 500 g ai/ha, visual rating, 0 = no effect, 100 = complete control, preemergence
# [5] = postemergence, 500 g ai/ha, scale 0 to 100, 0 is no effect, 100 is complete control
# [6] = 62 g ai/ha, preemergence, scale 0 to 100
# [7] = 125 g ai/ha, scale 0 (no effect) to 100 (complete control), visual, 12 to 14 days, preemergence
# [8] = 250 g ai/ha, scale 0-100, preemergence
# [9] = Preemergence, 500 g ai/ha, scale 0 to 100, 0 no effect, 100 complete control
# [10] = 500 g ai/ha, scale 0 to 100 (0 no effect, 100 complete control), visual, 12 to 14 days, preemergence
# [11] = postemergence, 125 g ai/ha, visual rating, scale 0 (no effect) to 100 (complete control)
# [12] = 250 g ai/ha, scale 0 to 100 (0 no effect, 100 complete control), visual, 12 to 14 days, preemergence
structure (smiles),measurement,setting,value
CCN1N=C(C(C)(C)C)CC1C(=O)Nc1cc(C(=O)N2CC=CC2)ccc1F (racemic) [Compound 310],Corn plant response rating (0 to 100 scale),corn [1]; [3],40
same,Corn plant response rating,"corn [1]; 125 g ai/ha, visual rating, scale 0 (no effect) to 100 (complete control), postemergence",0
same,"Plant response rating, Corn",corn [1]; [4],70
same,Corn plant response rating,corn [1]; [5],20
same,Ducksalad plant response rating,ducksalad,90
same,"Plant response rating, Cocklebur",cocklebur; [6],0
same,"Plant response rating, Cocklebur",cocklebur; [7],0
same,"Plant response rating, Cocklebur",cocklebur; [8],5
same,Cocklebur plant response rating,cocklebur; [9],30
same,"Plant response rating, Corn",corn [2]; [7],0
same,"Plant response rating, Corn",corn [2]; [8],5
same,"Plant response rating, Corn",corn [2]; [10],10
same,"Plant response rating, Foxtail, Giant",giant foxtail; [6],5
same,"Plant response rating, Foxtail, Giant",giant foxtail; [7],40
same,"Plant response rating, Foxtail, Giant",giant foxtail; [8],85
same,"Plant response rating, Foxtail, Giant",giant foxtail; [10],100
same,"Plant response rating, Kochia",kochia; [6],95
same,"Plant response rating, Kochia",kochia; [7],100
same,"Plant response rating, Kochia",kochia; [8],100
same,"Plant response rating, Kochia",kochia; [10],100
same,"Plant response rating, Velvetleaf",velvetleaf; [6],0
same,"Plant response rating, Velvetleaf",velvetleaf; [8],10
same,"Plant response rating, Velvetleaf",velvetleaf; [10],100
C=CCn1nc(C(C)(C)C)cc1C(=O)Nc1cccc(C(=O)NCC)c1 [Compound 56],"Plant response rating, Corn","corn [1]; Postemergence, 500 g ai/ha, visual rating after 13 to 15 days, scale 0 (no effect) to 100 (complete control)",30
same,Corn plant response rating,"corn [1]; Preemergence, 500 g ai/ha, scale 0 to 100",20
same,Corn plant response rating,corn [1]; [11],20
same,"Plant response rating, Corn","corn [1]; preemergence, 125 g ai/ha, 0 to 100 scale, 0 is no effect, 100 is complete control",0
same,Ducksalad plant response rating,"ducksalad; visual rating, 13 to 15 days",80
same,"Plant response rating (0 = no effect, 100 = complete control), Cocklebur","cocklebur; 62 g ai/ha, preemergence",0
same,"Plant response rating, Cocklebur",cocklebur; [7],0
same,Cocklebur plant response rating,cocklebur; [9],0
same,"Plant response rating (0 = no effect, 100 = complete control), Corn","corn [2]; 62 g ai/ha, preemergence",0
same,"Plant response rating, Corn",corn [2]; [7],0
same,"Plant response rating, Corn",corn [2]; [12],0
same,Corn plant response rating,corn [2]; 500 g ai/ha,0
same,"Plant response rating (0 = no effect, 100 = complete control), Foxtail, Giant","giant foxtail; 62 g ai/ha, preemergence",45
same,"Plant response rating, Foxtail, Giant",giant foxtail; [7],85
same,"Plant response rating, Foxtail, Giant",giant foxtail; [12],100
same,"Foxtail, Giant plant response rating",giant foxtail; 500 g ai/ha,100
same,"Plant response rating (0 = no effect, 100 = complete control), Kochia","kochia; 62 g ai/ha, preemergence",75
same,"Plant response rating, Kochia",kochia; [7],90
same,"Plant response rating, Kochia",kochia; [12],95
same,Kochia plant response rating,kochia; 500 g ai/ha,95
same,"Plant response rating (0 = no effect, 100 = complete control), Velvetleaf","velvetleaf; 62 g ai/ha, preemergence",20
same,"Plant response rating, Velvetleaf",velvetleaf; [7],35
same,"Plant response rating, Velvetleaf",velvetleaf; [12],50
same,Velvetleaf plant response rating,velvetleaf; 500 g ai/ha,100
"CCn1nc(C(C)(C)C)cc1C(=O)Nc1cc(C(=O)N(C)C)ccn1 [Compound 156, 2-[[[3-(1,1-dimethylethyl)-1-ethyl-1H-pyrazol-5-yl]carbonyl]amino]-N,N-dimethyl-4-pyridinecarboxamide]",plant injury at 125 g/ha,"corn [1]; Zea mays, post-emergence, postemergence, 125 g ai/ha, visual rating, scale 0 (no effect) to 100 (complete control), read-out: Corn plant response rating",0%
same,plant injury at 500 g/ha,"corn [1]; Zea mays, post-emergence, postemergence, 500 g ai/ha, visual rating, scale 0 (no effect) to 100 (complete control), read-out: Corn plant response rating",10%
same,"Corn plant response rating (crop injury, 0 = no effect, 100 = complete kill) at 500 g/ha","corn [1]; Zea mays, pre-emergence, 500 g ai/ha, visual rating 0-100, 0 no effect, 100 complete control",80%
same,"Corn plant response rating (crop injury, 0 = no effect, 100 = complete kill) at 125 g/ha","corn [1]; Zea mays, pre-emergence, preemergence, 125 g ai/ha, 0 to 100 scale, 0 is no effect, 100 is complete control",40%
same,pest or weed control at 1000 g/ha,"ducksalad; Heteranthera limosa, 336 h, visual rating, 13 to 15 days, read-out: Ducksalad plant response rating",100%
same,pest or weed control at 62 g/ha,"cocklebur; Xanthium strumarium, pre-emergence, 312 h, 62 g ai/ha, preemergence, scale 0 to 100, read-out: Plant response rating, Cocklebur",63%
same,pest or weed control at 125 g/ha,"cocklebur; Xanthium strumarium, pre-emergence, 312 h, 125 g ai/ha, scale 0 (no effect) to 100 (complete control), visual, 12 to 14 days, read-out: Plant response rating, Cocklebur",98%
same,pest or weed control at 250 g/ha,"cocklebur; Xanthium strumarium, pre-emergence, 312 h, 250 g ai/ha, scale 0 to 100 (0 no effect, 100 complete control), visual, 12 to 14 days, read-out: Plant response rating, Cocklebur",100%
same,pest or weed control at 500 g/ha,"cocklebur; Xanthium strumarium, pre-emergence, 312 h, Preemergence, 500 g ai/ha, scale 0 to 100, 0 no effect, 100 complete control, read-out: Cocklebur plant response rating",100%
same,Corn plant response rating,corn [2]; 500 g ai/ha,50
same,"Corn plant response rating (crop injury, 0 = no effect, 100 = complete kill) at 62 g/ha","corn [2]; Zea mays, pre-emergence, 312 h, 62 g ai/ha, preemergence, scale 0 to 100",15%
same,"Corn plant response rating (crop injury, 0 = no effect, 100 = complete kill) at 125 g/ha","corn [2]; Zea mays, pre-emergence, 312 h, 125 g ai/ha, scale 0 (no effect) to 100 (complete control), visual, 12 to 14 days",38%
same,"Corn plant response rating (crop injury, 0 = no effect, 100 = complete kill) at 250 g/ha","corn [2]; Zea mays, pre-emergence, 312 h, 250 g ai/ha, scale 0 to 100 (0 no effect, 100 complete control), visual, 12 to 14 days",40%
same,"Foxtail, Giant plant response rating",giant foxtail; 500 g ai/ha,95
same,pest or weed control at 62 g/ha,"giant foxtail; Setaria faberi, pre-emergence, 312 h, 62 g ai/ha, preemergence, scale 0 to 100, read-out: Plant response rating, Foxtail, Giant",75%
same,pest or weed control at 125 g/ha,"giant foxtail; Setaria faberi, pre-emergence, 312 h, 125 g ai/ha, scale 0 (no effect) to 100 (complete control), visual, 12 to 14 days, read-out: Plant response rating, Foxtail, Giant",83%
same,pest or weed control at 250 g/ha,"giant foxtail; Setaria faberi, pre-emergence, 312 h, 250 g ai/ha, scale 0 to 100 (0 no effect, 100 complete control), visual, 12 to 14 days, read-out: Plant response rating, Foxtail, Giant",85%
same,pest or weed control at 62 g/ha,"kochia; Bassia scoparia, pre-emergence, 62 g ai/ha, preemergence, scale 0 to 100, read-out: Plant response rating, Kochia",95%
same,pest or weed control at 125 g/ha,"kochia; Bassia scoparia, pre-emergence, 125 g ai/ha, scale 0 (no effect) to 100 (complete control), visual, 12 to 14 days, read-out: Plant response rating, Kochia",95%
same,Kochia plant response rating,kochia; 500 g ai/ha,100
same,pest or weed control at 62 g/ha,"velvetleaf; Abutilon theophrasti, pre-emergence, 62 g ai/ha, preemergence, scale 0 to 100, read-out: Plant response rating, Velvetleaf",43%
same,pest or weed control at 125 g/ha,"velvetleaf; Abutilon theophrasti, pre-emergence, 125 g ai/ha, scale 0 (no effect) to 100 (complete control), visual, 12 to 14 days, read-out: Plant response rating, Velvetleaf",63%
same,Velvetleaf plant response rating,velvetleaf; 500 g ai/ha,100
CCn1nc(C(C)(C)C)cc1C(=O)Nc1cc(C(=O)N(C)OC)ccc1F [Compound 244],Corn plant response rating (0 to 100 scale),corn [1]; [3],30
same,"Plant response rating, Corn",corn [1]; [4],60
same,Corn plant response rating,corn [1]; [11],10
same,Corn plant response rating,corn [1]; [5],30
same,Ducksalad plant response rating,ducksalad,90
same,"Plant response rating, Cocklebur",cocklebur; [6],0
same,"Plant response rating, Cocklebur",cocklebur; [7],0
same,"Plant response rating, Cocklebur",cocklebur; [8],0
same,Cocklebur plant response rating,cocklebur; [9],0
same,"Plant response rating, Corn",corn [2]; [6],0
same,"Plant response rating, Corn",corn [2]; [7],10
same,"Plant response rating, Corn",corn [2]; [8],10
same,"Plant response rating, Corn",corn [2]; [10],45
same,"Plant response rating, Foxtail, Giant",giant foxtail; [6],80
same,"Plant response rating, Foxtail, Giant",giant foxtail; [7],95
same,"Plant response rating, Foxtail, Giant",giant foxtail; [8],95
same,"Plant response rating, Foxtail, Giant",giant foxtail; [10],100
same,"Plant response rating, Velvetleaf",velvetleaf; [6],15
same,"Plant response rating, Velvetleaf",velvetleaf; [8],100
same,"Plant response rating, Velvetleaf",velvetleaf; [10],100
